Here are results for 22 compounds from US10040781B2, “Tank-binding kinase inhibitor compounds” (Gilead Sciences, Inc., priority 2014, dated 2018).

Counter-ions that a name gives are not always drawn. Like-named read-outs stand apart in the source and are kept apart here.

One may read the IC50 as the midpoint of a concentration-inhibition curve.

In one assay the target is IKKε (Homo sapiens (Human), UniProt Q14164). Briefly: IKKε TR-FRET enzymatic assay. The format is biochemical. The settings on record: read-out: IKKe IC50. Background: In TR-FRET formats the signal depends on donor and acceptor labels being close together.
Sequence of IKKε (Q14164 whole entry): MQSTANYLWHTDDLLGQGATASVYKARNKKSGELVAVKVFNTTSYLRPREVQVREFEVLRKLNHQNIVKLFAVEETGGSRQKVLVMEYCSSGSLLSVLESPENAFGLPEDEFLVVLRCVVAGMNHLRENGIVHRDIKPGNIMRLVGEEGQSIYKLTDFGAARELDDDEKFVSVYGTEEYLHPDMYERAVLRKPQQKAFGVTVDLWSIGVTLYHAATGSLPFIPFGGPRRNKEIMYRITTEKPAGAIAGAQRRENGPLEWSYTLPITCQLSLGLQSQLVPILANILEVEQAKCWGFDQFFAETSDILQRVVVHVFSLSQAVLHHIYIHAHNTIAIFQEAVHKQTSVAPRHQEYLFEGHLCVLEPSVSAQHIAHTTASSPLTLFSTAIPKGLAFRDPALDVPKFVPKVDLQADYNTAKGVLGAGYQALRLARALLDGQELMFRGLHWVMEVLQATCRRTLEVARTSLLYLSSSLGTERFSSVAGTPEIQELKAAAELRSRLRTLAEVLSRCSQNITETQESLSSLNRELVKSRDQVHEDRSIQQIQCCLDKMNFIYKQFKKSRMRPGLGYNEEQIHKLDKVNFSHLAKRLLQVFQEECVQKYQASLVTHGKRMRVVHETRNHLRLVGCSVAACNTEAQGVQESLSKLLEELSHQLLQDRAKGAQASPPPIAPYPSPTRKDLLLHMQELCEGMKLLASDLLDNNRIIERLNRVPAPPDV
A further assay deals with hJAK2 (Homo sapiens (Human), UniProt O60674). As to the kind of experiment: hJAK2 LANCE TR-FRET enzymatic assay. The class given is biochemical. The settings on record: read-out: JAK2 IC50.
Sequence of hJAK2 (O60674 whole entry): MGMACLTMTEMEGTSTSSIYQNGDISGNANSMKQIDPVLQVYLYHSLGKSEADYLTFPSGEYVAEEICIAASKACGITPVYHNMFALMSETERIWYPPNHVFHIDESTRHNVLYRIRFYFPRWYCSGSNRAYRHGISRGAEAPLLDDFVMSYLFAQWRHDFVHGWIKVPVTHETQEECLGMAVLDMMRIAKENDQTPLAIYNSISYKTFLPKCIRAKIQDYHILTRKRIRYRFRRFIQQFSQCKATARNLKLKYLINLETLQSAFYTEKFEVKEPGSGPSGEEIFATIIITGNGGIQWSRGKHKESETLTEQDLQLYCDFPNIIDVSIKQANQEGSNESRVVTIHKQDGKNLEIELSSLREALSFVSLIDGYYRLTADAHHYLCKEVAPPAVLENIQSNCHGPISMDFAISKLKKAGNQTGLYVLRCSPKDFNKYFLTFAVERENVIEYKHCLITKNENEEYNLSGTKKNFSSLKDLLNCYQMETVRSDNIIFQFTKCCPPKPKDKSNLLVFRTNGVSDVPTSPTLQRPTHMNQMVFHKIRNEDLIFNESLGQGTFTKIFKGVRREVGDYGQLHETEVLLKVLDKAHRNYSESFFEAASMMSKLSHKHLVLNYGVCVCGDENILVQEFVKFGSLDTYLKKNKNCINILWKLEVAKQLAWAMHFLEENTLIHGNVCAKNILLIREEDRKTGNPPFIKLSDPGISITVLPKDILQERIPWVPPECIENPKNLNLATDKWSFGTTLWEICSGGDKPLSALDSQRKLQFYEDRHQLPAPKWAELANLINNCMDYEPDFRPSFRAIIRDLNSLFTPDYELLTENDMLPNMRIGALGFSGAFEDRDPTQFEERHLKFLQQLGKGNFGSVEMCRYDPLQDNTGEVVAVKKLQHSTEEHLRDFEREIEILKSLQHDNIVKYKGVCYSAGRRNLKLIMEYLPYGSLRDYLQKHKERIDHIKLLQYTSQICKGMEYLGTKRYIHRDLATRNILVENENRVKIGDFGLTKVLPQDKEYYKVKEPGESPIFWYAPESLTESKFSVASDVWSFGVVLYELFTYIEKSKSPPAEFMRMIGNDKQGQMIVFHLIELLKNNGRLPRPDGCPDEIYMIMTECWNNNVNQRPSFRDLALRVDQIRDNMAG
In another assay the target is TBK1 (Homo sapiens (Human), UniProt Q9UHD2). Briefly: TBK1 TR-FRET enzymatic assay.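 Further: phosphorylation of a biotinylated Ser/Thr peptide by purified full-length recombinant TBK1, read by TR-FRET after 240 min at 25 °C, IC50 is the geometric mean of at least four runs.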
Sequence of TBK1 (Q9UHD2 whole entry): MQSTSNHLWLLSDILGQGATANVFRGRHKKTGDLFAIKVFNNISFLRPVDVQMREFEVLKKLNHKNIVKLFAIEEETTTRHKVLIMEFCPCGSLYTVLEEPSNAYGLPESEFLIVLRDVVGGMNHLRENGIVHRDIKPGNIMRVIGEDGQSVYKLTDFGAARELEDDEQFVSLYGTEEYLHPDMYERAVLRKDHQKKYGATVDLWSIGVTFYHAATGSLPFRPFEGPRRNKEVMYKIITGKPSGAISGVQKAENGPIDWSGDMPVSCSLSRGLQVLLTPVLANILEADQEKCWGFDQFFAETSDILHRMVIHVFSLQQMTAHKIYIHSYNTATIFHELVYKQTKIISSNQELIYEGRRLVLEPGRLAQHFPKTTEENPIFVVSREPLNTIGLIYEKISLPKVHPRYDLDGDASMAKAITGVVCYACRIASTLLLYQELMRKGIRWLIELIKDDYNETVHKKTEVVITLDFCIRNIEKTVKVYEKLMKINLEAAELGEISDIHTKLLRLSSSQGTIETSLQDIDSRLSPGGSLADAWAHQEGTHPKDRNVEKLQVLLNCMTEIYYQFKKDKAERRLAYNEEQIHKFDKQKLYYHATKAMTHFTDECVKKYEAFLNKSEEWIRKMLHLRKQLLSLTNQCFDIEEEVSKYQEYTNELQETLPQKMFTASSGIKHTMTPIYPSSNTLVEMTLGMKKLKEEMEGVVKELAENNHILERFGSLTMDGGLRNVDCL
Where [1] appears, read: TR-FRET, 2×Km ATP, geometric mean of minimum four determinations.

As to `N#Cc1cc(-c2ncnc(Nc3ccc(N4CCN(C5COC5)CC4)cc3)n2)ccc1O[C@H]1CCN(C(=O)[C@@H]2CC(=O)N2)C[C@H]1F` [Example 529, 2-(((3R,4S)-3-fluoro-1-((S)-4-oxoazetidine-2-carbonyl)piperidin-4-yl)oxy)-5-(4-((4-(4-(oxetan-3-yl)piperazin-1-yl)phenyl)amino)-1,3,5-triazin-2-yl)benzonitrile], the half-inhibitory concentration (IC50) stood at 0.004 µM on IKKε (setting [1]), 0.356 µM at hJAK2 and 0.003 µM against TBK1.
Turning to `C[C@H](Oc1ccc(-c2ncnc(Nc3ccc(N4CCN(C5COC5)CC4)cc3)n2)cc1C#N)C1CCOCC1` [Example 282, (S)-5-(4-((4-(4-(oxetan-3-yl)piperazin-1-yl)phenyl)amino)-1,3,5-triazin-2-yl)-2-(1-(tetrahydro-2H-pyran-4-yl)ethoxy)benzonitrile], the concentration for half-maximal inhibition (IC50) was 0.016 µM at IKKε, 0.219 µM at hJAK2 and 0.014 µM on TBK1.
For `N#Cc1cc(-c2ncnc(Nc3ccc(N4CCN(C5COC5)CC4)cc3)n2)ccc1OCC1(C#N)COC1` [Example 491, 3-((2-cyano-4-(4-((4-(4-(oxetan-3-yl)piperazin-1-yl)phenyl)amino)-1,3,5-triazin-2-yl)phenoxy)methyl)oxetane-3-carbonitrile], the concentration for half-maximal inhibition (IC50) on IKKε (setting [1]) worked out at 0.033 µM; on hJAK2, 0.216 µM; against TBK1, 0.025 µM.
As to `Cn1ncc2ccc(Nc3ncnc(-c4ccc(O[C@H]5CCN(C(=O)CO)C[C@H]5F)c(C#N)c4)n3)cc21` [Example 343, 2-(((3R,4S)-3-fluoro-1-(2-hydroxyacetyl)piperidin-4-yl)oxy)-5-(4-((1-methyl-1H-indazol-6-yl)amino)-1,3,5-triazin-2-yl)benzonitrile], the IC50 at IKKε is 0.002 µM; at hJAK2 it was 0.258 µM; on TBK1 it was 0.004 µM.
On to `N#Cc1cc(-c2ncnc(Nc3cccc(N4CCOCC4)c3)n2)ccc1OC1CCOCC1` [Example 63, 5-(4-((3-morpholinophenyl)amino)-1,3,5-triazin-2-yl)-2-((tetrahydro-2H-pyran-4-yl)oxy)benzonitrile], for which the values for the half-maximal inhibitory concentration (IC50) on IKKε, at hJAK2 and against TBK1 were 0.008 µM, 0.938 µM and 0.004 µM, respectively.
For the compound `C[C@H](O)C(=O)N1CC[C@H](Oc2ccc(-c3ncnc(Nc4ccc(N5CCN(C6COC6)[C@@H](C)C5)cc4)n3)cc2C#N)[C@H](F)C1` [Example 264, 2-(((3R,4S)-3-fluoro-1-((S)-2-hydroxypropanoyl)piperidin-4-yl)oxy)-5-(4-((4-((S)-3-methyl-4-(oxetan-3-yl)piperazin-1-yl)phenyl)amino)-1,3,5-triazin-2-yl)benzonitrile], the 50% inhibitory concentration (IC50) on IKKε came to 0.001 µM; on hJAK2, 0.296 µM; on TBK1 it was 0.002 µM.
As to `CCn1cc(Nc2ncnc(-c3ccc(O[C@H]4CCN(C(=O)CO)C[C@H]4F)c(C#N)c3)n2)nn1` [Example 502, 5-(4-((1-ethyl-1H-1,2,3-triazol-4-yl)amino)-1,3,5-triazin-2-yl)-2-(((3R,4S)-3-fluoro-1-(2-hydroxyacetyl)piperidin-4-yl)oxy)benzonitrile], the half-maximal inhibitory concentration (IC50) on IKKε (setting [1]) is 0.029 µM; on hJAK2 it was ≥ 1 µM; against TBK1 it was 0.028 µM.
For the compound `COc1cc(Nc2ncnc(-c3ccc(O[C@@H]4CCN(C(=O)CO)C4)c(C#N)c3)n2)ccc1N1CCN(C2COC2)CC1` [Example 22, (R)-2-((1-(2-hydroxyacetyl)pyrrolidin-3-yl)oxy)-5-(4-((3-methoxy-4-(4-(oxetan-3-yl)piperazin-1-yl)phenyl)amino)-1,3,5-triazin-2-yl)benzonitrile], the results for the IC50 on IKKε, on hJAK2 and against TBK1 were 0.008 µM, 0.128 µM and 0.003 µM, respectively.
The like results for `C[C@H](O)C(=O)N1CC[C@H](Oc2ccc(-c3ncnc(Nc4ccc(N5CCCOCC5)cc4)n3)cc2C#N)[C@H](F)C1` [Example 363, 5-(4-((4-(1,4-oxazepan-4-yl)phenyl)amino)-1,3,5-triazin-2-yl)-2-(((3R,4S)-3-fluoro-1-((S)-2-hydroxypropanoyl)piperidin-4-yl)oxy)benzonitrile] were, in that order, 0.001 µM, 0.665 µM and 0.003 µM.
As for `Cc1cn[nH]c1C(=O)N1CC[C@H](Oc2ccc(-c3ncnc(Nc4ccc(N5CCN(C6COC6)CC5)cc4)n3)cc2C#N)[C@H](F)C1` [Example 528, 2-(((3R,4S)-3-fluoro-1-(4-methyl-1H-pyrazole-5-carbonyl)piperidin-4-yl)oxy)-5-(4-((4-(4-(oxetan-3-yl)piperazin-1-yl)phenyl)amino)-1,3,5-triazin-2-yl)benzonitrile], the IC50 on IKKε (setting [1]) amounted to 0.02 µM; on hJAK2 it was 0.368 µM; against TBK1 it was 0.008 µM.
With `N#Cc1cc(-c2ncnc(Nc3ccc(N4CCN(C5COC5)CC4)cc3)n2)ccc1O[C@H]1CCN(C(=O)[C@@H]2COC(=O)N2)C[C@H]1F` [Example 333, 2-(((3R,4S)-3-fluoro-1-((S)-2-oxooxazolidine-4-carbonyl)piperidin-4-yl)oxy)-5-(4-((4-(4-(oxetan-3-yl)piperazin-1-yl)phenyl)amino)-1,3,5-triazin-2-yl)benzonitrile], the results for the IC50 on IKKε, on hJAK2 and on TBK1 were 0.003 µM, 0.233 µM and 0.002 µM, respectively.
Take `N#Cc1cc(-c2ncnc(Nc3ccc(N4CCN(C5COC5)CC4)cc3)n2)ccc1O[C@H]1CCN(C(=O)c2ccnn2CCO)C[C@H]1F` [Example 448, 2-(((3R,4S)-3-fluoro-1-(1-(2-hydroxyethyl)-1H-pyrazole-5-carbonyl)piperidin-4-yl)oxy)-5-(4-((4-(4-(oxetan-3-yl)piperazin-1-yl)phenyl)amino)-1,3,5-triazin-2-yl)benzonitrile]: the half-inhibitory concentration (IC50) came to 0.084 µM at IKKε (setting [1]), 0.213 µM on hJAK2 and 0.054 µM against TBK1.
On to `Cn1cncc1C(=O)N1CC[C@H](Oc2ccc(-c3ncnc(Nc4ccc(N5CCN(C6COC6)CC5)cc4)n3)cc2C#N)[C@H](F)C1` [Example 267, 2-(((3R,4S)-3-fluoro-1-(1-methyl-1H-imidazole-5-carbonyl)piperidin-4-yl)oxy)-5-(4-((4-(4-(oxetan-3-yl)piperazin-1-yl)phenyl)amino)-1,3,5-triazin-2-yl)benzonitrile], for which the half-inhibitory concentration (IC50) was 0.264 µM at IKKε, 0.404 µM on hJAK2 and 0.12 µM against TBK1.
For the compound `N#Cc1cc(-c2ncnc(Nc3ccc(N4CCN(C5COC5)CC4)cc3)n2)ccc1N1CCC2(CCOC2)CC1` [Example 213, 5-(4-((4-(4-(oxetan-3-yl)piperazin-1-yl)phenyl)amino)-1,3,5-triazin-2-yl)-2-(2-oxa-8-azaspiro[4.5]decan-8-yl)benzonitrile], the figures for the IC50 on IKKε, on hJAK2 and at TBK1 were 0.014 µM, ≥ 1 µM and 0.003 µM, respectively.
On to `N#Cc1cc(-c2ncnc(Nc3ccc(N4CCN(C5COC5)CC4)cc3)n2)ccc1O[C@@H]1CCCN(C(=O)CO)C1` [Example 125, (R)-2-((1-(2-hydroxyacetyl)piperidin-3-yl)oxy)-5-(4-((4-(4-(oxetan-3-yl)piperazin-1-yl)phenyl)amino)-1,3,5-triazin-2-yl)benzonitrile], for which the IC50 at IKKε came out at 0.086 µM; on hJAK2, 0.952 µM; on TBK1, 0.031 µM.
With `CC1(C)CN(C(=O)CO)C[C@H](F)[C@@H]1Oc1ccc(-c2ncnc(Nc3ccc(N4CCN(C5COC5)CC4)cc3)n2)cc1C#N` (single isomer, unassigned) [Example 178], the results for the IC50 at IKKε, on hJAK2 and against TBK1 were 0.001 µM, 0.049 µM and 0.002 µM, respectively.
As to `CS(=O)(=O)c1ccc(Nc2ncnc(-c3ccc(OC4CCN(C(=O)CO)CC4)c(C#N)c3)n2)cc1` [Example 57, 2-((1-(2-hydroxyacetyl)piperidin-4-yl)oxy)-5-(4-((4-(methylsulfonyl)phenyl)amino)-1,3,5-triazin-2-yl)benzonitrile], the IC50 on IKKε is 0.008 µM; at hJAK2 it was > 1 µM; on TBK1, 0.005 µM.
For `C[C@H](O)C(=O)N1CCC(Oc2cc(C#N)cc(-c3ncnc(Nc4ccc(N5CCN(C6COC6)CC5)cc4)n3)c2)CC1` [Example 134, (S)-3-((1-(2-hydroxypropanoyl)piperidin-4-yl)oxy)-5-(4-((4-(4-(oxetan-3-yl)piperazin-1-yl)phenyl)amino)-1,3,5-triazin-2-yl)benzonitrile], the 50% inhibitory concentration (IC50) on IKKε is ≥ 1 µM; at hJAK2, 0.371 µM; at TBK1, 0.52 µM.
As for `N#Cc1cc(-c2ncnc(Nc3ccc(N4CCNCC4)cc3)n2)ccc1OC1CCOCC1` [Example 18, 5-(4-((4-(piperazin-1-yl)phenyl)amino)-1,3,5-triazin-2-yl)-2-((tetrahydro-2H-pyran-4-yl)oxy)benzonitrile, trifluoroacetic acid salt], the half-maximal inhibitory concentration (IC50) on IKKε turned out to be 0.001 µM; at hJAK2 it was 0.271 µM; on TBK1, 0.001 µM.
Regarding `N#Cc1cc(-c2ncnc(Nc3ccc(N4CCN(C5CCOCC5)CC4)c(F)c3)n2)ccc1O[C@H]1CCN(C(=O)CO)C[C@H]1F` [Example 307, 2-(((3R,4S)-3-fluoro-1-(2-hydroxyacetyl)piperidin-4-yl)oxy)-5-(4-((3-fluoro-4-(4-(tetrahydro-2H-pyran-4-yl)piperazin-1-yl)phenyl)amino)-1,3,5-triazin-2-yl)benzonitrile], the IC50 was 0.001 µM at IKKε, 0.268 µM at hJAK2 and 0.003 µM against TBK1.
With `CN1CCN(c2cccc(Nc3ncnc(-c4ccc(OC5CCOCC5)c(C#N)c4)n3)c2)CC1` [Example 62, 5-(4-((3-(4-methylpiperazin-1-yl)phenyl)amino)-1,3,5-triazin-2-yl)-2-((tetrahydro-2H-pyran-4-yl)oxy)benzonitrile], the IC50 at IKKε was 0.003 µM; at hJAK2, > 1 µM; against TBK1, 0.005 µM.
For the compound `CC1CN(C(=O)CO)CCC1Oc1ccc(-c2ncnc(Nc3ccc(N4CCN(C5COC5)CC4)cc3)n2)cc1C#N` (stereo not drawn) [Example 170, 2-((1-(2-hydroxyacetyl)-3-methylpiperidin-4-yl)oxy)-5-(4-((4-(4-(oxetan-3-yl)piperazin-1-yl)phenyl)amino)-1,3,5-triazin-2-yl)benzonitrile], the IC50 at IKKε was 0.008 µM; at hJAK2, 0.255 µM; against TBK1 it was 0.003 µM.
